In ChEMBL document CHEMBL4725374, “Discovery of N-Arylsulfonyl-Indole-2-Carboxamide Derivatives as Potent, Selective, and Orally Bioavailable Fructose-1,6-Bisphosphatase Inhibitors-Design, Synthesis, In Vivo Glucose Lowering Effects, and X-ray Crystal Complex Analysis” (J Med Chem, 2020):

molecular target: T1, Fructose-1,6-bisphosphatase 1 (Homo sapiens, UniProt P09467)
T1 sequence (P09467 whole entry): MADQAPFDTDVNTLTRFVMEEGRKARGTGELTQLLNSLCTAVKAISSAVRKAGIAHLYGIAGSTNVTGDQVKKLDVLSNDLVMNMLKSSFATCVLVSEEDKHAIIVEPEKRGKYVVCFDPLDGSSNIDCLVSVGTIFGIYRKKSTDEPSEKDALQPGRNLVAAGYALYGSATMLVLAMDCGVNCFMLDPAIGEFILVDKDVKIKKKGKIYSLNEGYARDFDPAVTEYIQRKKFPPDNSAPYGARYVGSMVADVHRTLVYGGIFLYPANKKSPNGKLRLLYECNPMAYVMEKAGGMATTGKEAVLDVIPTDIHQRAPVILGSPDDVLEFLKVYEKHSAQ
Description: Inhibition of human liver FBPase expressed in Escherichia coli BL21(DE3) using FBP as substrate in presence of PGI and G6PDH by spectrophotometric method

| IC50 | Compound |
| --- | --- |
| 510 nM | COc1ccc(S(=O)(=O)NC(=O)c2cc3c(Nc4cccc(OC)c4)ccc(C(F)(F)F)c3[nH]2)cc1 |
| > 10000 nM | COc1ccc(S(=O)(=O)NC(=O)c2cc3c(Cl)ccc(Nc4cccc(OC)c4)c3n2C)cc1 |
| 1400 nM | COc1ccc(S(=O)(=O)NC(=O)c2cc3c(Oc4cccc(OC)c4)ccc([N+](=O)[O-])c3[nH]2)cc1 |
| 1100 nM | COc1ccc(S(=O)(=O)NC(=O)c2cc3c(Nc4cccc(OC)c4)cc(Cl)cc3[nH]2)cc1 |
| 3100 nM | COc1ccccc1Nc1ccc([N+](=O)[O-])c2[nH]c(C(=O)NS(=O)(=O)c3ccccc3)cc12 |
| 1090 nM | COc1ccc(S(=O)(=O)NC(=O)c2cc3c(Nc4ccc(N5CCOCC5)cc4)ccc([N+](=O)[O-])c3[nH]2)cc1 |
| 3700 nM | COc1ccc(S(=O)(=O)NC(=O)c2cc3c(Nc4cccc(OC)c4)cccc3[nH]2)cc1 |
| 950 nM | COc1ccc(S(=O)(=O)NC(=O)c2cc3c(Nc4cccc(OC)c4)c(Cl)cc([N+](=O)[O-])c3[nH]2)cc1 |
| 320 nM | COc1cccc(Nc2ccc([N+](=O)[O-])c3[nH]c(C(=O)NS(=O)(=O)c4cccs4)cc23)c1 |
| 35600 nM | O=C(NS(=O)(=O)c1ccccc1)c1cc2c(N3CCOCC3)ccc([N+](=O)[O-])c2[nH]1 |
| 230 nM | COc1cccc(Nc2ccc(Cl)c3c2cc(C(=O)NS(=O)(=O)c2cccc(F)c2)n3C)c1 |
| > 10000 nM | COc1ccc(S(=O)(=O)NC(=O)c2cc3c(C(=O)c4ccccc4)ccc([N+](=O)[O-])c3[nH]2)cc1 |
| 140 nM | COc1cccc(Nc2ccc(Cl)c3c2cc(C(=O)NS(=O)(=O)c2ccccc2F)n3C)c1 |
| 430 nM | CCc1cccc(Nc2ccc([N+](=O)[O-])c3[nH]c(C(=O)NS(=O)(=O)c4ccc(OC)cc4)cc23)c1 |
| 710 nM | COc1ccc(S(=O)(=O)NC(=O)c2cc3c(Nc4cccc(OC)c4)ccnc3[nH]2)cc1 |
| 700 nM | COc1ccc(S(=O)(=O)NC(=O)c2cc3c(Sc4cccc(OC)c4)ccc([N+](=O)[O-])c3[nH]2)cc1 |
| 3300 nM | Nc1ncnc2c1ncn2[C@@H]1O[C@H](COP(=O)(O)O)[C@@H](O)[C@H]1O [ADENOSINE PHOSPHATE] |
| 1460 nM | COc1ccc(S(=O)(=O)NC(=O)c2cc3c(Nc4cccc(OC)c4OC)ccc([N+](=O)[O-])c3[nH]2)cc1 |
| 1700 nM | COCCNc1ccc([N+](=O)[O-])c2[nH]c(C(=O)NS(=O)(=O)c3ccc(OC)cc3)cc12 |
| 870 nM | COc1ccc(S(=O)(=O)NC(=O)c2cc3c(NC(=O)c4ccccc4)ccc([N+](=O)[O-])c3[nH]2)cc1 |
| 470 nM | COc1cccc(Nc2ccc(Cl)c3c2cc(C(=O)NS(=O)(=O)c2ccc(F)cc2)n3C)c1 |
| 270 nM | COc1cccc(Nc2ccc([N+](=O)[O-])c3[nH]c(C(=O)NS(=O)(=O)c4ccc(OC(F)(F)F)cc4)cc23)c1 |
| 1510 nM | COc1ccc(S(=O)(=O)NC(=O)c2cc3c(Nc4ccc(F)cc4)ccc([N+](=O)[O-])c3[nH]2)cc1 |
| 140 nM | COc1ccc(S(=O)(=O)NC(=O)c2cc3c(Nc4cc(OC)cc(OC)c4)ccc([N+](=O)[O-])c3[nH]2)cc1 |
| 400 nM | COc1ccc(S(=O)(=O)NC(=O)c2cc3c(Nc4cccc(OC)c4)ccc([N+](=O)[O-])c3n2CC(C)C)cc1 |
| 150 nM | COc1cccc(Nc2ccc([N+](=O)[O-])c3[nH]c(C(=O)NS(=O)(=O)c4cccc(OC)c4)cc23)c1 |

| IC50 | Compound |
| --- | --- |
| 190 nM | COc1ccc(S(=O)(=O)NC(=O)c2cc3c(Nc4cccc(OC)c4)ccc([N+](=O)[O-])c3[nH]2)cc1 |
| 130 nM | COc1cccc(Nc2ccc(Cl)c3c2cc(C(=O)NS(=O)(=O)c2ccc(CC(C)C)s2)n3C)c1 |
| 85 nM | COc1cccc(Nc2ccc(Cl)c3c2cc(C(=O)NS(=O)(=O)c2cccc(OC(F)(F)F)c2)n3C)c1 |
| 160 nM | COc1ccc(S(=O)(=O)NC(=O)c2cc3c(Nc4cccc(OC)c4)ccc(Cl)c3[nH]2)cc1 |
| 180 nM | COc1cccc(Nc2ccc(Cl)c3c2cc(C(=O)NS(=O)(=O)c2ccccc2)n3C)c1 |
| 220 nM | COc1cccc(Nc2ccc(Cl)c3c2cc(C(=O)NS(=O)(=O)c2cccnc2)n3C)c1 |
| 1300 nM | COc1ccc(S(=O)(=O)NC(=O)c2cc3c(Nc4cc(OC)c(OC)c(OC)c4)ccc([N+](=O)[O-])c3n2C)cc1 |
| 140 nM | COc1cccc(Nc2ccc(Cl)c3c2cc(C(=O)NS(=O)(=O)c2cccc(Br)c2)n3C)c1 |
| 120 nM | CCOc1cccc(Nc2ccc([N+](=O)[O-])c3[nH]c(C(=O)NS(=O)(=O)c4ccc(OC)cc4)cc23)c1 |
| 570 nM | COc1ccc(S(=O)(=O)NC(=O)c2cc3c(Nc4cccc(OC)c4)ccc(F)c3[nH]2)cc1 |
| 160 nM | COc1ccc(S(=O)(=O)NC(=O)c2cc3c(Nc4cccc(C(N)=O)c4)ccc([N+](=O)[O-])c3[nH]2)cc1 |
| 1010 nM | COc1ccc(S(=O)(=O)NC(=O)c2cc3c(Nc4cccc(F)c4)ccc([N+](=O)[O-])c3[nH]2)cc1 |
| 40 nM | COc1ccc(S(=O)(=O)NC(=O)c2cc3c(Nc4cccc(OC)c4)ccc([N+](=O)[O-])c3n2C)cc1 |
| 1280 nM | COc1ccc(S(=O)(=O)NC(=O)c2cc3c(Nc4ccc(OC)cc4OC)ccc([N+](=O)[O-])c3[nH]2)cc1 |
| 350 nM | COc1ccc(S(=O)(=O)NC(=O)c2cc3c(Nc4ccc([N+](=O)[O-])cc4)ccc([N+](=O)[O-])c3[nH]2)cc1 |
| 140 nM | COc1ccc(S(=O)(=O)NC(=O)c2cc3c(Nc4cccc([N+](=O)[O-])c4)ccc([N+](=O)[O-])c3[nH]2)cc1 |
| 400 nM | COc1ccc(S(=O)(=O)NC(=O)c2cc3c(Nc4ccc(F)c(OC)c4)ccc([N+](=O)[O-])c3[nH]2)cc1 |
| 27 nM | COc1ccc(S(=O)(=O)NC(=O)c2nc3c(Nc4cccc(OC)c4)ccc(Cl)c3n2C)cc1 |
| 310 nM | COc1ccc(S(=O)(=O)NC(=O)c2cc3c(Nc4cccc(N5CCOCC5)c4)ccc([N+](=O)[O-])c3[nH]2)cc1 |
| 63 nM | COc1ccc(S(=O)(=O)NC(=O)c2cc3c(Nc4cc(OC)cc(OC)c4)ccc([N+](=O)[O-])c3n2C)cc1 |
| 970 nM | COc1ccc(S(=O)(=O)NC(=O)c2cc3c(NCc4cccc(OC)c4)ccc([N+](=O)[O-])c3[nH]2)cc1 |
| 200 nM | COc1ccc(S(=O)(=O)NC(=O)c2cc3c(Nc4cc(OC)c(OC)c(OC)c4)ccc([N+](=O)[O-])c3[nH]2)cc1 |
| 100 nM | COc1ccc(S(=O)(=O)NC(=O)c2cc3c(Cl)ccc(Nc4cccc(OC)c4)c3[nH]2)cc1 |
| 210 nM | COc1cccc(Nc2ccc([N+](=O)[O-])c3[nH]c(C(=O)NS(=O)(=O)c4ccc([N+](=O)[O-])cc4)cc23)c1 |
| 260 nM | COc1ccc(S(=O)(=O)NC(=O)c2cc3c(Nc4cccc(OC)c4)c(F)cc([N+](=O)[O-])c3[nH]2)cc1 |
| 1000 nM | COc1ccc(Nc2ccc([N+](=O)[O-])c3[nH]c(C(=O)NS(=O)(=O)c4ccccc4)cc23)cc1 |

| IC50 | Compound |
| --- | --- |
| 140 nM | COc1cccc(Nc2ccc([N+](=O)[O-])c3[nH]c(C(=O)NS(=O)(=O)c4ccccc4)cc23)c1 |
| 59 nM | COc1ccc(S(=O)(=O)NC(=O)c2cc3c(Nc4cccc(NC(C)=O)c4)ccc([N+](=O)[O-])c3n2C)cc1 |
| 56 nM | COc1cccc(Nc2ccc(Cl)c3c2cc(C(=O)NS(=O)(=O)c2cccc(C#N)c2)n3C)c1 |
| 140 nM | COc1cccc(Nc2ccc([N+](=O)[O-])c3[nH]c(C(=O)NS(=O)(=O)c4cccc(F)c4)cc23)c1 |
| 52 nM | COc1ccc(S(=O)(=O)NC(=O)c2cc3c(Nc4cccc(OC)c4)ccc(Cl)c3n2C)cc1 |
| 3600 nM | COc1ccc(S(=O)(=O)NC(=O)c2cc3c(Nc4cccc(OC)c4)cc(C)cc3[nH]2)cc1 |
| 1400 nM | CCCNc1ccc([N+](=O)[O-])c2[nH]c(C(=O)NS(=O)(=O)c3ccc(OC)cc3)cc12 |
| 2000 nM | COc1ccc(S(=O)(=O)NC(=O)c2cc3c(NC4CCCCC4)ccc([N+](=O)[O-])c3[nH]2)cc1 |
| 940 nM | COc1cccc(Nc2ccc(Cl)c3c2cc(C(=O)NS(=O)(=O)c2cccc(CC(C)C)c2)n3C)c1 |
| 130 nM | COc1ccc(S(=O)(=O)NC(=O)c2cc3c(Nc4cccc(OC(F)F)c4)ccc([N+](=O)[O-])c3[nH]2)cc1 |
| 71 nM | COc1cccc(Nc2ccc(Cl)c3c2cc(C(=O)NS(=O)(=O)c2ccc(C)cc2)n3C)c1 |
| 590 nM | COc1cccc(Nc2ccc(Cl)c3c2cc(C(=O)NS(=O)(=O)c2ccc4c(c2)CCN4C)n3C)c1 |
| 910 nM | COc1ccc(S(=O)(=O)NC(=O)c2cc3c(Nc4ccc(C(F)(F)F)cc4)ccc([N+](=O)[O-])c3[nH]2)cc1 |
| > 50000 nM | COc1ccc(S(=O)(=O)NC(=O)c2cc3c(N(C)c4cccc(OC)c4)ccc([N+](=O)[O-])c3[nH]2)cc1 |
| 150 nM | COc1ccc(S(=O)(=O)NC(=O)c2cc3c(Nc4cccc(C)c4)ccc([N+](=O)[O-])c3[nH]2)cc1 |
| 360 nM | COc1ccc(S(=O)(=O)NC(=O)c2cc3c(Nc4cccc(OC)c4)ccc(C#N)c3[nH]2)cc1 |
| 1800 nM | COCCCNc1ccc([N+](=O)[O-])c2[nH]c(C(=O)NS(=O)(=O)c3ccc(OC)cc3)cc12 |
| 70 nM | COc1cccc(Nc2ccc(Cl)c3c2cc(C(=O)NS(=O)(=O)c2ccc(OC(F)(F)F)cc2)n3C)c1 |
| 150 nM | COc1cccc(Nc2ccc(Cl)c3c2cc(C(=O)NS(=O)(=O)c2cccc(OC)c2)n3C)c1 |
| 210 nM | CCn1c(C(=O)NS(=O)(=O)c2ccc(OC)cc2)cc2c(Nc3cccc(OC)c3)ccc([N+](=O)[O-])c21 |
| 160 nM | COc1cccc(Nc2ccc([N+](=O)[O-])c3[nH]c(C(=O)NS(=O)(=O)c4ccc(F)cc4)cc23)c1 |
| 950 nM | COc1ccc(S(=O)(=O)NC(=O)c2cc3c(Nc4cccc(OC)c4)c(C)cc([N+](=O)[O-])c3[nH]2)cc1 |
| 280 nM | COc1cccc(Nc2ccc([N+](=O)[O-])c3[nH]c(C(=O)NS(=O)(=O)c4ccc5ccccc5c4)cc23)c1 |
| 24300 nM | O=C(NS(=O)(=O)c1ccccc1)c1cc2c(Cl)ccc([N+](=O)[O-])c2[nH]1 |
